In the NIST ThermoML archive (doi:10.1016/j.fluid.2006.08.018):
Numbers after ± are expanded uncertainties.

Key:
[1] = Liquid; for mass density: 101.33 kPa
[2] = refractive index (Na D-line) (dimensionless); settings: 101.33 kPa, Liquid, Standard Abbe refractometry

Structure (SMILES) | mass density ([1]; 298.15 K) [kg/m3] | refractive index ([2]; 298.15 K) | mass density ([1]; 293.15 K) [kg/m3] | refractive index ([2]; 293.15 K) | further results
ClC(Cl)C(Cl)Cl [1,1,2,2-tetrachloroethane] |  |  | 1594.5 ± 5.1 | 1.494 ± 0.0008 | vapor or sublimation pressure ([1]; 417.25 K): 95.5 ± 4 kPa
ClCCCl [1,2-dichloroethane] |  |  | 1252.1 ± 3.8 | 1.4448 ± 0.0008 | vapor or sublimation pressure ([1]; 355.15 K): 95.5 ± 4 kPa
CC(C)CO [2-methyl-1-propanol] | 797.8 ± 2.1 | 1.3939 ± 0.0008 |  |  | vapor or sublimation pressure ([1]; 379.76 K): 95.5 ± 5 kPa
ClC(Cl)=C(Cl)Cl [tetrachloroethene] |  |  | 1622.8 ± 5.3 | 1.5058 ± 0.0008 | vapor or sublimation pressure ([1]; 392.15 K): 95.5 ± 4 kPa
ClC=C(Cl)Cl [trichloroethene] |  |  | 1464 ± 4.6 | 1.4782 ± 0.0008 | vapor or sublimation pressure ([1]; 357.85 K): 95.5 ± 4 kPa

Further lines, with some results ahead:

mass density ([1]; 298.15 K) [kg/m3] | refractive index ([2]; 298.15 K) | Structure (SMILES) | mass density ([1]; 293.15 K) [kg/m3] | refractive index ([2]; 293.15 K) | further results
781.2 ± 2.1 | 1.3852 ± 0.0008 | CC(C)(C)O [2-methylpropan-2-ol] |  |  | vapor or sublimation pressure ([1]; 354.15 K): 95.5 ± 4 kPa
802.4 ± 2.2 | 1.3953 ± 0.0008 | CCC(C)O (configuration not stated) [butan-2-ol] |  |  | vapor or sublimation pressure ([1]; 371.25 K): 95.5 ± 4 kPa
943.9 ± 2.5 | 1.4282 ± 0.0007 | CN(C)C=O [dimethylformamide] |  |  | vapor or sublimation pressure ([1]; 421.15 K): 95.5 ± 4 kPa
784.9 ± 2.1 | 1.3591 ± 0.0008 | CCO [ethanol] |  |  | vapor or sublimation pressure ([1]; 349.95 K): 95.5 ± 4 kPa
